Measurements published in patent publication US8937064B2, “Pyrazolo[1,5-a]pyrimidines useful as JAK2 inhibitors” (Vertex Pharmaceuticals Incorporated, priority 2007, dated 2015).
pKi: −log10 of the molar value.

Tests used:
[1] = target: T1, JAK3 (Homo sapiens, UniProt P52333); test: JAK3 Inhibition Assay; format: biochemical; conditions: 1 nM JAK3, 1 μM poly(Glu)4Tyr, 5 μM ATP, 25° C., 33P incorporation
T1 sequence (P52333 1-1124): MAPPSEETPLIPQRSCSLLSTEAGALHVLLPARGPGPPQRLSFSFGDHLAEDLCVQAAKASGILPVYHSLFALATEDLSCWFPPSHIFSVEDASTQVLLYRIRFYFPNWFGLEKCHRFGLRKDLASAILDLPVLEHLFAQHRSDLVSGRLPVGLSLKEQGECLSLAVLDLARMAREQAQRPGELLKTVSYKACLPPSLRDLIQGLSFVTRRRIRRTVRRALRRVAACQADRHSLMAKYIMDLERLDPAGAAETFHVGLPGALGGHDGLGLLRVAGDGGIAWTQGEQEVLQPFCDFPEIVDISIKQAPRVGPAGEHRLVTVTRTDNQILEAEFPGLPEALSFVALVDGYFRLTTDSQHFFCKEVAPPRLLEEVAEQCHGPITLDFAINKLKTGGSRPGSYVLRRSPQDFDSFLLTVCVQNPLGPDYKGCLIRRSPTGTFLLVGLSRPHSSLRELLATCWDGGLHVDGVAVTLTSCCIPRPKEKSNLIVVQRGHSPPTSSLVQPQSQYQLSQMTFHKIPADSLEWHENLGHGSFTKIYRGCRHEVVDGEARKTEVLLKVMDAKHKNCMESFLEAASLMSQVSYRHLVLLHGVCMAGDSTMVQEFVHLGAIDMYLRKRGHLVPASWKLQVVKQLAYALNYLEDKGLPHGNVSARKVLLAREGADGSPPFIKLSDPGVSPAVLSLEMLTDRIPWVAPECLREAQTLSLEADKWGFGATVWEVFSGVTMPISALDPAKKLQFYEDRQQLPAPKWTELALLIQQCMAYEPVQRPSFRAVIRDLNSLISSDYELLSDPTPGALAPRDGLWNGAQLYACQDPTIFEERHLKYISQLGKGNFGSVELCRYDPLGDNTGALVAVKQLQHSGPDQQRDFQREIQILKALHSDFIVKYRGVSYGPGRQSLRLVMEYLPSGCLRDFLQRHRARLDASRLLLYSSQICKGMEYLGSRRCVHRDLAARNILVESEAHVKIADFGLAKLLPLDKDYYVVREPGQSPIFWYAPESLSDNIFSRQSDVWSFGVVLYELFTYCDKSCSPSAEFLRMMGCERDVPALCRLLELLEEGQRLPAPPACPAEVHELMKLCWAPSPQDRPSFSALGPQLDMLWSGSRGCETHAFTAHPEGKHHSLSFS

[2] = target: JAK-2 enzyme (Homo sapiens, UniProt O60674); test: JAK2 Inhibition Assay
JAK-2 enzyme, sequence (O60674 whole entry): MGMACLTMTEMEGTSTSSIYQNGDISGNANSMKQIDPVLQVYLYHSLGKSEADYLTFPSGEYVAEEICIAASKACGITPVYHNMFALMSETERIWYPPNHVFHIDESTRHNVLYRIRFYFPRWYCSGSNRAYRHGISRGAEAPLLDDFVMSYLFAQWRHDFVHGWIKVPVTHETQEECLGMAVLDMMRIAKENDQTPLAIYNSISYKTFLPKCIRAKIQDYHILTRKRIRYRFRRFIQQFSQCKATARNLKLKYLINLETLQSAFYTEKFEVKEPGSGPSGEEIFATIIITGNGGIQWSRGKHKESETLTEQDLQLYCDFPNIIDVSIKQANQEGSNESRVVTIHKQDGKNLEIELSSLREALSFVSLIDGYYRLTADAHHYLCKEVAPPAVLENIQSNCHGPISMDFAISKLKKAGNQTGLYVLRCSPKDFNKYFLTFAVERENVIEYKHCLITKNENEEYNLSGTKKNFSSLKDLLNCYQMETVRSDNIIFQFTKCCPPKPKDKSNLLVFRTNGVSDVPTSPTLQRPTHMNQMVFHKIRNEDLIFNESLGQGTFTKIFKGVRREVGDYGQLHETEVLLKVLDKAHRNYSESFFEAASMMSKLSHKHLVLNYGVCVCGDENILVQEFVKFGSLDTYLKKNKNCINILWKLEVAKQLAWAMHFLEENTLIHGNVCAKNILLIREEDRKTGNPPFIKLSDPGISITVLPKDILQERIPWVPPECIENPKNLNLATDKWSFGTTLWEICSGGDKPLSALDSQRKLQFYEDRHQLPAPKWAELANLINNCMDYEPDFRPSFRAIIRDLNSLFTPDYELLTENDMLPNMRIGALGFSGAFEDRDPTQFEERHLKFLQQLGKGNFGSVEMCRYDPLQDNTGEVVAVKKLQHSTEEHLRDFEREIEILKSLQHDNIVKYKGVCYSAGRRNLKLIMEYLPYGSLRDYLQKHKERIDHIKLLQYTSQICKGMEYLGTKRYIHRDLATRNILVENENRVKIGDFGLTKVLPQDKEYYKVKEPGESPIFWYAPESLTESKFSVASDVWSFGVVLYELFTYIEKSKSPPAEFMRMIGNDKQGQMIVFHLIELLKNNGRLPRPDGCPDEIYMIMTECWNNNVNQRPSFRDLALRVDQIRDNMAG
Procedure: Reactions were carried out in a kinase buffer containing 100 mM HEPES (pH 7.4), 1 mM DTT, 10 mM MgCl2, 25 mM NaCl, and 0.01% BSA. Substrate concentrations in the assay were 5 μM ATP (200 uCi/μmole ATP) and 1 μM poly(Glu)4Tyr. Reactions were carried out at 25° C. and 1 nM JAK3.
To each well of a 96 well polycarbonate plate was added 1.5 μl of a candidate JAK3 inhibitor along with 50 μl of kinase buffer containing 2 μM poly(Glu)4Tyr and 10 μM ATP. This was then mixed and 50 μl of kinase buffer containing 2 nM JAK3 enzyme was added to start the reaction. After 20 minutes at room temperature (25° C.), the reaction was stopped with 50 μl of 20% trichloroacetic acid (TCA) that also contained 0.4 mM ATP. The entire contents of each well were then transferred to a 96 well glass fiber filter plate using a TomTek Cell Harvester. After washing, 60 μl of scintillation fluid was added and ^33P incorporation detected on a Perkin Elmer TopCount.

SMILES | pKi [1] | pKi [2]
COCCOc1nc(N[C@@H](C)c2ccc(F)cc2)cc(-c2c(N)nn3cccnc23)n1 [Compound 108] | 7.00 to 8.00 | > 8.00
C[C@H](Nc1cc(-c2c(N)nn3cccnc23)nc(OCCOC(C)(C)C)n1)c1ccc(F)cc1 [Compound 160] | 6.30 to 7.00 | 7.00 to 8.00
CC#CCOc1nc(N[C@@H](C)c2ccc(F)cc2)cc(-c2c(N)nn3cccnc23)n1 [Compound 151] | 6.30 to 7.00 | 7.00 to 8.00
CC(C)[C@H](Nc1cc(-c2c(N)nn3ccc(C(F)(F)F)nc23)ncn1)c1ccc(F)cc1F [Compound 136] | 6.30 to 7.00 | 7.00 to 8.00
C[C@H](Nc1cc(-c2cnn3cccnc23)nc(OCC2CC2)n1)c1ccc(F)cc1F [Compound 205] | 6.30 to 7.00 | > 8.00
C[C@H](Nc1cc(-c2cnn3cccnc23)nc(OCC2CCCN(C)C2)n1)c1ccc(F)cc1F (stereo partly shown) [Compound 215] | 7.00 to 8.00 | > 8.00
C[C@H](Nc1cc(-c2c(N)nn3cccnc23)nc(OCCC2CC2)n1)c1ccc(F)cc1 [Compound 157] | 6.30 to 7.00 | 7.00 to 8.00
CCC[C@H](Nc1cc(-c2c(N)nn3cccnc23)nc(S(C)(=O)=O)n1)c1ccc(F)cc1 [Compound 110] | 7.00 to 8.00 | > 8.00
CSCCOc1nc(N[C@@H](C)c2ccc(F)cc2)cc(-c2c(N)nn3cccnc23)n1 [Compound 173] | 7.00 to 8.00 | > 8.00
CC(C)[C@@H](Nc1cc(-c2c(N)nn3cccnc23)nc(S(C)(=O)=O)n1)c1ccc(F)cc1F [Compound 113] | 5.30 to 6.30 | 6.30 to 7.00
C[C@H](Nc1cc(-c2cnn3cccnc23)nc(OCCC2CCCCN2)n1)c1ccc(F)cc1F (stereo partly shown) [Compound 198] | 7.00 to 8.00 | > 8.00
C[C@H](Nc1cc(-c2c(N)nn3cccnc23)nc(OCC2CCCN(C)C2)n1)c1ccc(F)cc1 (stereo partly shown) [Compound 171] | 7.00 to 8.00 | 7.00 to 8.00
CCC(=O)Nc1nc(N[C@@H](C)c2ccc(F)cc2F)cc(-c2cnn3cccnc23)n1 [Compound 188] | 6.30 to 7.00 | > 8.00
CCC[C@H](Nc1cc(-c2c(N)nn3cccnc23)nc(N2CCOCC2)n1)c1ccc(F)cc1F [Compound 107] | 6.30 to 7.00 | 7.00 to 8.00
C#CCCCOc1nc(N[C@@H](C)c2ccc(F)cc2)cc(-c2c(N)nn3cccnc23)n1 [Compound 183] | 7.00 to 8.00 | > 8.00
C[C@H](Nc1cc(-c2cnn3cccnc23)nc(OCCN2CCCCCC2)n1)c1ccc(F)cc1F [Compound 217] | 7.00 to 8.00 | > 8.00
C[C@H](Nc1cc(-c2c(N)nn3cccnc23)nc(N2CCOCC2)n1)c1ccc(F)cc1 [Compound 96] | 7.00 to 8.00 | > 8.00
C[C@H](Nc1cc(-c2cnn3cccnc23)nc(OCCN2CCNCC2)n1)c1ccc(F)cc1F [Compound 210] | 7.00 to 8.00 | > 8.00
COCCNc1nc(N[C@@H](C)c2ccc(F)cc2)cc(-c2c(N)nn3cccnc23)n1 [Compound 119] | 7.00 to 8.00 | > 8.00
C[C@H](Nc1cc(-c2c(N)nn3cccnc23)nc(OC[C@@H]2CO2)n1)c1ccc(F)cc1 [Compound 163] | 5.30 to 6.30 | 7.00 to 8.00
COCCOc1nc(N[C@@H](C)c2ccc(F)cc2F)cc(-c2c(N)nn3cccnc23)n1 [Compound 126] | > 8.00 | > 8.00
C[C@H](Nc1cc(-c2c(N)nn3cccnc23)nc(OCCN2CCCC2=O)n1)c1ccc(F)cc1F [Compound 128] | 7.00 to 8.00 | > 8.00
C[C@H](Nc1cc(-c2cnn3cccnc23)ncn1)c1ccc(F)c(F)c1 [Compound 118] | 7.00 to 8.00 | > 8.00
Nc1nn2cccnc2c1-c1cc(N2Cc3ccccc3C2)ncn1 [Compound 27] | 6.30 to 7.00 | 7.00 to 8.00
Nc1nn2cccnc2c1-c1cc(N[C@@H]2CCCc3ccccc32)ncn1 [Compound 79] | 6.30 to 7.00 | 7.00 to 8.00
C[C@H](Nc1cc(-c2cnn3cccnc23)nc(OCCN2CCOCC2)n1)c1ccc(F)cc1F [Compound 213] | 7.00 to 8.00 | > 8.00
Nc1nn2cccnc2c1-c1cc(N2CCCC2c2ccccc2)ncn1 (stereo not shown) [Compound 57] | 7.00 to 8.00 | > 8.00

SMILES | pKi [1] | pKi [2]
C=CCOc1nc(N[C@@H](C)c2ccc(F)cc2)cc(-c2c(N)nn3cccnc23)n1 [Compound 169] | 7.00 to 8.00 | > 8.00
CC#CC(C)Oc1nc(N[C@@H](C)c2ccc(F)cc2)cc(-c2c(N)nn3cccnc23)n1 (stereo partly shown) [Compound 181] | 6.30 to 7.00 | 7.00 to 8.00
CSCCOc1nc(N[C@@H](C)c2ccc(F)cc2F)cc(-c2cnn3cccnc23)n1 [Compound 212] | 7.00 to 8.00 | > 8.00
C[C@H](Nc1cc(-c2c(N)nn3cc(F)cnc23)ncn1)c1ccc(F)cc1F [Compound 105] | 7.00 to 8.00 | > 8.00
CNCCOc1nc(N[C@@H](C)c2ccc(F)cc2F)cc(-c2cnn3cccnc23)n1 [Compound 199] | 7.00 to 8.00 | > 8.00
C[C@H](Nc1cc(-c2cnn3cccnc23)nc(OCCCN(C)C)n1)c1ccc(F)cc1F [Compound 211] | 7.00 to 8.00 | > 8.00
CC(C)[C@@H](Nc1cc(-c2cnn3cccnc23)ncn1)c1ccc(F)cc1F [Compound 120] | 6.30 to 7.00 | 7.00 to 8.00
COC(C)(C)CCOc1nc(N[C@@H](C)c2ccc(F)cc2)cc(-c2c(N)nn3cccnc23)n1 [Compound 178] | 7.00 to 8.00 | > 8.00
C[C@H](Nc1cc(-c2c(N)nn3cccnc23)nc(OCC2(C)CC2)n1)c1ccc(F)cc1 [Compound 143] | 6.30 to 7.00 | 7.00 to 8.00
C#CC(CC)Oc1nc(N[C@@H](C)c2ccc(F)cc2)cc(-c2c(N)nn3cccnc23)n1 (stereo partly shown) [Compound 180] | 6.30 to 7.00 | > 8.00
C[C@H](Nc1cc(-c2cnn3cccnc23)nc(NC(=O)CCN2CCCC2=O)n1)c1ccc(F)cc1F [Compound 185] | 6.30 to 7.00 | > 8.00
COc1nc(N[C@@H](C)c2ccc(F)cc2F)cc(-c2c(N)nn3cccnc23)n1 [Compound 132] | > 8.00 | > 8.00
C[C@H](Nc1cc(-c2cnn3cccnc23)ncn1)c1ccc(F)cc1 [Compound 114] | 7.00 to 8.00 | > 8.00
C[C@H](Nc1cc(-c2cnn3cccnc23)nc(OCCN2CCCCC2)n1)c1ccc(F)cc1F [Compound 195] | 7.00 to 8.00 | > 8.00
CN(Cc1cccnc1)c1cc(-c2c(N)nn3cccnc23)ncn1 [Compound 33] | 7.00 to 8.00 | 7.00 to 8.00
C[C@H](Nc1cc(-c2c(N)nn3cccnc23)nc(N2CCC(N(C)C)C2)n1)c1ccc(F)cc1 (stereo partly shown) [Compound 190] | 7.00 to 8.00 | > 8.00
Nc1nn2cccnc2c1-c1cc(NCc2ccco2)ncn1 [Compound 24] | 7.00 to 8.00 | 7.00 to 8.00
Nc1nn2cccnc2c1-c1cc(O[C@@H](c2ccccc2)C(F)(F)F)ncn1 [Compound 70] | 5.30 to 6.30 | 6.30 to 7.00
Cc1ccccc1CNc1cc(-c2c(N)nn3cccnc23)ncn1 [Compound 11] | 7.00 to 8.00 | > 8.00
C[C@H](Nc1cc(-c2cnn3cccnc23)nc(NC(=O)CN2CCOCC2)n1)c1ccc(F)cc1F [Compound 186] | 6.30 to 7.00 | > 8.00
C[C@H](Nc1cc(-c2c(N)nn3cccnc23)nc(N2CCOCC2)n1)c1ccc(F)cc1F [Compound 106] | 7.00 to 8.00 | > 8.00
C[C@H](Nc1cc(-c2cnn3cccnc23)nc(OCCOCCN2CCNCC2)n1)c1ccc(F)cc1F [Compound 203] | 6.30 to 7.00 | 7.00 to 8.00
C[C@H](Nc1ccnc(-c2cnn3cccnc23)n1)c1ccc(F)cc1 [Compound 224] | 6.30 to 7.00 | 7.00 to 8.00
CCC[C@H](Nc1cc(-c2c(N)nn3ccc(C(F)(F)F)nc23)ncn1)c1ccc(F)cc1F [Compound 137] | 6.30 to 7.00 | 6.30 to 7.00
C[C@H](Nc1cc(-c2c(N)nn3cccnc23)nc(C2CC2)n1)c1ccc(F)cc1 [Compound 91] | 7.00 to 8.00 | > 8.00
OCC[C@H](Nc1cc(-c2cnn3cccnc23)ncn1)c1ccccc1 [Compound 115] | 7.00 to 8.00 | 7.00 to 8.00
